Experimental data reported in patent publication US20250360210A1, “IMMUNOEFFECTOR CELLS DERIVED FROM INDUCED PLURIPOTENT STEM CELLS GENETICALLY ENGINEERED WITH MEMBRANE BOUND IL12 AND USES THEREOF” (Century Therapeutics, Inc., priority 2022, published 2025).

Target: T1, ADAM17 (Homo sapiens, UniProt P78536)
T1 construct: endogenous in cells; host or cells: iPSCs engineered with p1514 (ADAM17-cleavable membrane-tethered IL12 transgene at the AAVS1 locus)
Assay: Flow cytometry for IL12 on the surface of p1514-engineered iPSCs after incubation with TAPI-1
Format: cell-based
Settings: concentrations lower than 50 uM
Protocol: To confirm expression in cells engineered with the ADAM17 cleavable membrane tethered IL12 (p1514; FIG. 1B), the iPSCs were incubated with different concentrations of the ADAM17 inhibitor TAPI-1 and then analyzed by flow cytometry for IL12 detection on the surface of the engineered iPSCs.
Lower concentrations had no effect on cell health or tmIL12 detection)

T1 sequence (P78536 215-824): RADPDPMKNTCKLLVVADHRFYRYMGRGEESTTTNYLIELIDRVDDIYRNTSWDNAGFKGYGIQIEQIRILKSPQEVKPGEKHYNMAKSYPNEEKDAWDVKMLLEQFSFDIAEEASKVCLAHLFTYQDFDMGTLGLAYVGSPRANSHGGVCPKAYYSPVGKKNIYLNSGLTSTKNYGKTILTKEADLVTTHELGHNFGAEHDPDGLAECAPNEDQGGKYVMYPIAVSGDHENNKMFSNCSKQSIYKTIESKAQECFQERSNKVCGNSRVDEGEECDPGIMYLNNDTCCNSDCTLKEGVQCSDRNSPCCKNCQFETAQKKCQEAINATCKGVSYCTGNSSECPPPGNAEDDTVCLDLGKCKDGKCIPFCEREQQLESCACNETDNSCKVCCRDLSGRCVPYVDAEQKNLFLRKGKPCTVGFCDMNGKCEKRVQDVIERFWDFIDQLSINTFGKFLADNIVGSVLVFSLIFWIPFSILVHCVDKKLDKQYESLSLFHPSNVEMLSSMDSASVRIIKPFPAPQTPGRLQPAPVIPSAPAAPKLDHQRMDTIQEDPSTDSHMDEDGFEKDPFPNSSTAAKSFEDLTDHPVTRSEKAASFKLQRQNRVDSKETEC

Structure (SMILES): CC(C)C[C@H](CC(=O)NO)C(=O)N[C@@H](Cc1ccc2ccccc2c1)C(=O)N[C@@H](C)C(=O)NCCN [TAPI-1]
- tmIL12 detection on surface of engineered iPSCs: no effect
- cell health (engineered iPSCs): no effect
